Results reported in PubChem BioAssay AID1918937 (Molecular Pharmacology Branch, DTP, NCI, 2023).

Tested on: 521955-158-R2-J5-PDC complex spheroid viability
Assay: Anticancer human tumor 521955-158-R2-J5-PDC patient-derived pancreatic carcinoma cell line growth inhibition
Conditions: for IC50: curve of first compound; for viability, T/C: stronger effect = lower value
Text: Multicellular complex tumor spheroid response to LSD1 Inhibitor Iadademstat in combination with a variety of drugs and investigational agents in selected tumor cell lines
The current study was undertaken to assess response to LSD1 inhibitors in combination with standard-of-care drugs and investigational agents in solid tumor complex spheroid models as well as in the K-562 leukemia. Complex spheroids include a stromal component modeled by human endothelial cells (HUVEC) and fibroblasts modeled by human mesenchymal stem cells (MSCs). The concentration ranges selected for each drug and investigational agent were based upon clinically achievable concentrations if the clinical Cmax of the agent was known.
Compounds. The drugs and investigational agents used in this study are listed on Table 1. All of the agents used, including staurosporine (NSC755774) and gemcitabine (NSC613327), were obtained from the Developmental Therapeutics Program, NCI. FDA-approved anticancer drugs are available from the NCI at http://dtp.nci.nih.gov/branches/dscb/oncology_drugset_explanation.html. Drugs and investigational agents were >95% pure by proton nuclear magnetic resonance (NMR) and liquid chromatography/mass spectrometry (LC/MS). Stock solutions were prepared at 400x in DMSO, stored at -70 degrees C, and diluted in fresh medium prior to their use. The final concentration of DMSO in cell culture wells never exceeded 0.25% (v/v). The FDA-approved anticancer drug set is available from the Developmental Therapeutics Program at https://dtp.cancer.gov/organization/dscb/obtaining/available_plates.htm. All drugs and investigational agents were tested over a range starting from a high concentration at or near the clinical Cmax and decreasing in half-log increments. If the clinical Cmax for an agent had not been determined, the highest concentration tested was 10 microM.
Cell Lines. The patient-derived cancer cell (PDC) lines: 292921-168-R-J2-PDC, K24384-001-R-PDC, and 521955-158-R2-J5-PDC pancreatic carcinomas, 556581-035-R-J1 ovarian carcinoma, 324938-238-R-J1-PDC, 855422-203-R-J1-PDC and 883617-216-R-J1-PDC urothelial bladder carcinomas, 743489-274-T-PDC renal cell carcinoma, 138582-R-J1 Merkel cell tumor, K60290-347-R-J1 and K57222-313-R-J1-PDC glioblastomas, 653999-131-R-J2-PDC, LG0703-F948-PDC, and 349418-098-R-PDC non-small cell lung carcinomas, 885512-296-R-J2-PDC, 171881-019-R-J1-PDC breast carcinomas and 186277-243-T-J2-PDC and 233499-124-R-J2-PDC colon carcinomas were obtained from the NCI Patient-Derived Models Repository (PDMR, https://pdmr.cancer.gov). The established cell lines NCI/ADR-RES (RRID:CVCL_14520 and OVCAR-5 (RRID:CVCL_1628) ovarian carcinomas, 786-O (RRID:CVCL_1051) and A498 (RRID:CVCL_A498) renal cell carcinoma, NCI-H211 (ATCC, cat. CRL-5824; RRID:CVCL_1529), NCI-H196 (ATCC, cat. CRL-5823, RRID:CVCL_1509), SW 1271 (ATCC, cat. CRL-2177, RRID:CVCL_1716) and NCI-H1876 (ATCC, cat. CRL-5902, RRID:CVCL_1503) small cell lung carcinomas, MDA-MB-231 (RRID:CVCL_0062) and MDA-MB-468 (RRID:CVCL_0419)breast carcinomas (10-12). Pooled donor human umbilical vein endothelial cells (HUVEC, Lonza, cat. CC-2519) and human mesenchymal stem cells (hMSC, Lonza, cat. PT-2501) were purchased from Lonza (Walkersville, MD).
Cell Culture. All cells were maintained in an incubator at 37 degrees C and 5% CO2 with 95% humidity. The PDC lines were cultured according to standard operating procedures established by the NCI PDMR (https://pdmr.cancer.gov). Briefly all PDCs were thawed and cultured in Matrigel-coated flasks prepared with a working solution of 1X Ham's F-12 nutrient mix, without supplementation (Invitrogen, Waltham, MA, cat. 11765054), 100 U/mL penicillin-streptomycin (Invitrogen, cat. 15140122), and 2.5% Matrigel (Corning Inc., Corning, NY, cat. 354248) for the first three passages. […]

[1] = second compound 0.1 µM, first compound 0.0316 µM
[2] = second compound 0.1 µM, first compound 0.1 µM
[3] = second compound 0.1 µM, first compound 0.316 µM
[4] = second compound 0.1 µM, first compound 1 µM
[5] = second compound 0.316 µM, first compound 0.0316 µM
[6] = second compound 0.316 µM, first compound 0.1 µM
[7] = second compound 0.316 µM, first compound 0.316 µM
[8] = second compound 0.316 µM, first compound 1 µM
[9] = second compound 1 µM, first compound 0.0316 µM
[10] = second compound 1 µM, first compound 0.1 µM
[11] = second compound 1 µM, first compound 0.316 µM
[12] = second compound 1 µM, first compound 1 µM
[13] = second compound 3.16 µM, first compound 0.0316 µM
[14] = second compound 3.16 µM, first compound 0.1 µM
[15] = second compound 3.16 µM, first compound 0.316 µM
[16] = second compound 3.16 µM, first compound 1 µM
[17] = second compound 10 µM, first compound 0.0316 µM
[18] = second compound 10 µM, first compound 0.1 µM
[19] = second compound 10 µM, first compound 0.316 µM
[20] = second compound 10 µM, first compound 1 µM
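Also: spheroids exposed to agents for seven days.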
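For viability, T/C in this document: percent of DMSO vehicle control luminescence viability.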

SMILES	IC50 (second compound 0.1 µM)	IC50 (second compound 0.316 µM)	IC50 (second compound 1 µM)	IC50 (second compound 3.16 µM)	IC50 (second compound 10 µM)	viability, T/C [1]	viability, T/C [2]	viability, T/C [3]	viability, T/C [4]	viability, T/C [5]	viability, T/C [6]	viability, T/C [7]	viability, T/C [8]	viability, T/C [9]	viability, T/C [10]	viability, T/C [11]	viability, T/C [12]	viability, T/C [13]	viability, T/C [14]	viability, T/C [15]	also measured
Nc1ncn(C2CC(O)C(CO)O2)c(=O)n1 (stereo not given) + NC1CC1c1ccc(-c2cccc(O)c2)cc1	> 1 µM	> 1 µM	> 1 µM	> 1 µM	> 1 µM	83.7%	76.3%	58.7%	52.4%	101%	73.4%	65.5%	53.1%	86.6%	76.9%	68.8%	59.8%	82.2%	79%	76%	viability, T/C (second compound 0.1 µM, first compound 0.00316 µM): 89.9%; viability, T/C (second compound 0.1 µM, first compound 0.01 µM): 81.6%; viability, T/C (second compound 0.316 µM, first compound 0.00316 µM): 78.3%; viability, T/C (second compound 0.316 µM, first compound 0.01 µM): 89.6%; viability, T/C (second compound 1 µM, first compound 0.00316 µM): 84.1%; viability, T/C (second compound 1 µM, first compound 0.01 µM): 91.2%; viability, T/C (second compound 3.16 µM, first compound 0.00316 µM): 80.9%; viability, T/C (second compound 3.16 µM, first compound 0.01 µM): 83.9%; viability, T/C [16]: 65.1%; viability, T/C (second compound 10 µM, first compound 0.00316 µM): 87.7%; viability, T/C (second compound 10 µM, first compound 0.01 µM): 94%; viability, T/C [17]: 95.9%; viability, T/C [18]: 80.7%; viability, T/C [19]: 75.5%; viability, T/C [20]: 67.4%
CC1(C)CCC(CN2CCN(c3ccc(C(=O)NS(=O)(=O)c4ccc(NCC5CCOCC5)c([N+](=O)[O-])c4)c(Oc4cnc5[nH]ccc5c4)c3)CC2)=C(c2ccc(Cl)cc2)C1 + NC1CCC(NC2CC2c2ccccc2)CC1	4.2 µM	3.81 µM	3.77 µM	3.11 µM	3.79 µM	109%	116%	112%	109%	119%	113%	116%	111%	108%	105%	108%	103%	116%	124%	111%	viability, T/C (second compound 0.1 µM, first compound 3.16 µM): 66.1%; viability, T/C (second compound 0.1 µM, first compound 10 µM): 0.51%; viability, T/C (second compound 0.316 µM, first compound 3.16 µM): 59.5%; viability, T/C (second compound 0.316 µM, first compound 10 µM): 0.64%; viability, T/C (second compound 1 µM, first compound 3.16 µM): 58.8%; viability, T/C (second compound 1 µM, first compound 10 µM): 0.9%; viability, T/C [16]: 109%; viability, T/C (second compound 3.16 µM, first compound 3.16 µM): 49%; viability, T/C (second compound 3.16 µM, first compound 10 µM): 0.91%; viability, T/C [17]: 119%; viability, T/C [18]: 117%; viability, T/C [19]: 117%; viability, T/C [20]: 115%; viability, T/C (second compound 10 µM, first compound 3.16 µM): 59.1%; viability, T/C (second compound 10 µM, first compound 10 µM): 0.85%
